Molecular target: T1, human H3R (Homo sapiens, UniProt Q9Y5N1)
T1 construct: expressed in transfected cells; host or cells: CHO cells
Experiment: Binding assay with 3H-(R)α-methylhistamine (competition binding)
Conditions: competition binding vs 3H(R)α-methylhistamine (1 nM), membrane of the human H3R-CHO cell line; Ki calculated from IC50 by Cheng-Prusoff equation
Protocol: Binding Assay with ^3H—(R)α-methylhistamine
Saturation binding experiments were performed using HR3-CHO membranes prepared as described in Takahashi, K, Tokita, S., Kotani, H. (2003) J. Pharmacol. Exp. Therapeutics 307, 213-218.
An appropriate amount of membrane (60 to 80 μg protein/well) was incubated with increasing concentrations of ^3H(R)α-Methylhistamine di-hydrochloride (0.10 to 10 nM). Non specific binding was determined using a 200 fold excess of cold (R)α-methyl-histamine dihydrobromide (500 nM final concentration). The incubation was carried out at room temperature (in deep-well plates shaking for three hours). The final volume in each well was 250 μl. The incubation was followed by rapid filtration on GF/B filters (pre-soaked with 100 μl of 0.5% PEI in Tris 50 mM shaking at 200 rpm for two hours). The filtration was made using a cell-harvester and the filter plates were then washed five times with ice cold washing buffer containing 0.5 M NaCl. After harvesting, the plates were dried at 55° C. for 60 min, then scintillation fluid (Microscint 40, 40 microl in each well) was added and the amount of radioactivity on the filter was determined in Packard top-counter after shaking the plates for two hours at 200 rpm at room temperature.
Binding Buffer: 50 mM Tris-HCl pH 7.4 and 5 mM MgCl2×6H2O pH 7.4. Washing Buffer: 50 mM Tris-HCl pH 7.4 and 5 mM MgCl2×6H2O and 0.5 M NaCl pH 7.4.
Indirect measurement of affinity of H3R inverse agonists: twelve increasing concentrations (ranging from 10 μM to 0.3 nM) of the selected compounds were always tested in competition binding experiments using membrane of the human H3R—CHO cell line. […]
All compounds were tested at a single concentration in duplicate. […] Ki's were calculated from IC50 based on Cheng-Prusoff equation (Cheng, Y, Prusoff, W H (1973) Biochem Pharmacol 22, 3099-3108): Ki=IC50/[1+D/Kd] wherein D is the concentration of the radioligand and Kd is the binding constant for the radioligand binding to the receptor under the conditions used in the competition experiment.

T1 sequence (Q9Y5N1 whole entry): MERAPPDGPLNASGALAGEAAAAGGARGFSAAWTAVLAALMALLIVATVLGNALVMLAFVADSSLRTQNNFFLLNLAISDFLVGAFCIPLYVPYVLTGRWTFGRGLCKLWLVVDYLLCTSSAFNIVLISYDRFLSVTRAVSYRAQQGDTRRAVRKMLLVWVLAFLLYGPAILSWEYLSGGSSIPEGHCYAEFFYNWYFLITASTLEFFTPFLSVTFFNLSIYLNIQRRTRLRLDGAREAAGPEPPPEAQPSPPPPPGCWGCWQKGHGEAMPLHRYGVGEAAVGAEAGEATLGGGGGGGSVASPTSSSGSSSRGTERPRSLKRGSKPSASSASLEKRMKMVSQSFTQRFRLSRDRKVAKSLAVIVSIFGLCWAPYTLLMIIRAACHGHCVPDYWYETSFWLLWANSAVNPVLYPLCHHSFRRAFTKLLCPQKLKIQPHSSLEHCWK

| Ki | SMILES |
| --- | --- |
| 15.4 nM | CC(C)N1CCN(C(=O)c2ccc3c(ccn3CCCN3CCCCC3C)c2)CC1 (stereo not drawn) [Example 59, (4-isopropyl-piperazin-1-yl)-{1-[3-(2-methyl-piperidin-1-yl)-propyl]-1H-indol-5-yl}-methanone] |
| 12.1 nM | O=C(c1ccc2c(ccn2CC2CCCN(Cc3ccccc3)C2)c1)N1CCN(C2CCCC2)CC1 (stereo not drawn) [Example 11, [1-(1-benzyl-piperidin-3-ylmethyl)-1H-indol-5-yl]-(4-cyclopentyl-piperazin-1-yl)-methanone] |
| 5.9 nM | CCN1CCC(n2ccc3cc(C(=O)N4CCN(C5CCCC5)CC4)ccc32)C1 (stereo not drawn) [Example 6, (4-cyclopentyl-piperazin-1-yl)-[1-(1-ethyl-pyrrolidin-3-yl)-1H-indol-5-yl]-methanone] |
